# Results taken from patent US4954520A, “1,3-dioxolane derivatives useful in the treatment of inflammation” (G. D. Searle & Co., priority 1989, dated 1990).
# Where a name gives a salt, the structure may show the parent alone.
# System: LTB4 production in HL-60 cells
# Assay: A23187-Induced LTB4 Production in Human Promyelocytic Leukemia HL-60 Cells (HL-60 Cell Assay)
# Assay type: cell-based
# Conditions: for inhibition at 100 µM: 10^-4 M; for inhibition at 10 µM: 10^-5 M; for IC50: A23187-stimulated differentiated HL-60 cells, 10 minutes preincubation at 37° C.
# Text: A23187-Induced LTB4 Production in Human Promyelocytic Leukemia HL-60 Cells.
# Calcium ionophore A23187 was obtained from Calbiochem (La Jolla, CA). Trans-stilbene oxide was obtained from Sigma (St. Louis, MO). Hanks' balanced salt solution (HBSS) (10X concentrate), 1 M Hepes, and Dulbecco's modified Eagle medium were obtained from GIBCO Laboratories (Grand Island, NY). Fetal bovine serum was obtained from HyClone Laboratories (Logan, UT) The LTB4 and PGE2 radioimmunoassay antibodies were purchased from Amersham International plc (Amersham, UK) and NEN Research Products (N. Billerica, MA), respectively. Reagents for assay of lactate dehydrogenase (LDH) activity were purchased from Beckman (Carlsbad, CA).
# Preparation of HL 60 Cells:
# HL-60 cells were cultured in Dulbecco's modified Eagle medium (supplementedwith 20% fetal bovine serum, 20 mM Hepes, 100 U/ml penicillin and 100 mcg/ml streptomycin) and maintained at 37° C. in a humidified atmosphere of 5% CO2 in air. Cells from exponentially growing cultures were seeded at 3×10^5 cells/ml and induced to differentiate into granulocyte with 0.8% (v/v) N,N dimethylformamide for 4 days (1,2). Prior to assay, differentiated HL-60 cells were washed once with Hanks' balanced salt solution containing 0.35 mg/ml sodium bicarbonate and 10 mM Hepes, pH 7.3 (HBSS) and resuspended in HBSS at a concentration of 3×10^6 cells/ml.
# DMSO or test compounds as 100× concentrates in DMSO were added in duplicate to 1.0 ml HL-60 cell suspensions (3×10^6 cells) and preincubated at 37° C. for 10 minutes in a shaking water bath. After an additional 5 minute incubation with calcium ionophore A23187 (10 mcl @ 5×10^-4 M in DMSO), the cells were pelleted at 12,800×g for 15 seconds and the supernatant removed and stored at […] for quantification of LTB4 or PGE2 via radioimmunoassay and LDH activity.
# LTB4 and PGE2 data were expressed as percent inhibition of A23187-stimulated controls. For IC50 determinations, the 4 parameter logistic model was used where y is the percent inhibition response and×is the log10 concentration of the inhibitor: [formula] Nonlinear regression was performed using the SAS (3) procedure NLIN to obtain least squares estimates of the four parameters in the above equation: y.infin. (maximum), Y0 (minimum), a (log10 IC50) and b (slope factor). Increases in mean LDH levels for A23187-stimulated cells in the presence of test compound were tested for significance using a one tailed two sample Student's t-test.
Structure (SMILES),inhibition at 100 µM (A23187-stimulated HL-60 cells),inhibition at 10 µM (A23187-stimulated HL-60 cells),IC50,"inhibition at 1 µM (10^-6 M, A23187-stimulated HL-60 cells)"
"CCCCCCCCCC/C=C/C=C/C1OCC(CCCC(=O)O)O1 (racemic) [Example 5B (Racemic Mixture), 2-Tetradeca-1E,3E-dienyl-1,3-dixolane-4-butanoic acid, lithium salt]",96%,80%,6.8 µM,
"CCCCCCCCCC/C=C/C=C/C1OCC(c2cccc(C(=O)O)c2)O1 (racemic) [Example 7B (Racemic Mixture), 3-(2-Tetradeca-1E,3E-dienyl-1,3-dioxolan-4-yl)benzoic acid, lithium salt]",89%,91%,2.5 µM,21%
"CCCCCCC/C=C/C=C/C1OCC(CCCC(=O)O)O1 (racemic) [Example 8B, (±) 2-Undeca-1E,3E-dienyl-1,3-dioxolane-4-butanoic acid, lithium salt]",84%,,,
"CCCCCCCCCC/C=C/C=C/C1OCC(CCCC(=O)O)O1 (single isomer, unassigned) [Example 5B (Single Diastereomer), 2-Tetradeca-1E,3E-dienyl-1,3-dixolane-4-butanoic acid, lithium salt]",91%,77%,7.2 µM,
"CCCCCCCCCC/C=C/C=C/C1OCC(c2cccc(C(=O)[O-])c2)O1.[Li+] (single isomer, unassigned) [Example 7B (Single diastereomer), 3-(2-Tetradeca-1E,3E-dienyl-1,3-dioxolan-4-yl)benzoic acid, lithium salt]",92%,92%,3.6 µM,
